Here are results for 39 molecules from patent US7745483B2, “2-Halofuryl-thienyl-3-carboxamides” (Bayer CropScience AG, priority 2004, dated 2010).

Common to all, as to assay type: in vivo
For one assay, the system named is Puccinia recondita. The experiment in a line: Puccinia test (wheat)/protective. The following applies: 240 h, protective, application rate 500 g/ha, evaluation 10 days after inoculation, read-out: Efficacy in %. The procedure: [table] To produce a suitable preparation of active compound, 1 part by weight of active compound is mixed with the stated amounts of solvent and emulsifier, and the concentrate is diluted with water to the desired concentration. To test for protective activity, young plants are sprayed with the preparation of active compound at the stated application rate. After the spray coating has dried on, the plants are sprayed with a conidia suspension Puccinia recondita. The plants remain in an incubation cabin at 20° C. and 100% relative atmospheric humidity for 48 hours. The plants are then placed in a greenhouse at a temperature of about 20° C. and a relative atmospheric humidity of 80% to promote the development of rust pustules. Evaluation is carried out 10 days after the inoculation. 0% means an efficacy which corresponds to that of the control, whereas an efficacy of 100% means that no infection is observed.

The subject of the next assay is Alternaria solani. The experiment in a line: Alternaria test (tomato)/protective. The following applies: protective, application rate 750 g/ha, evaluation 7 days after inoculation. On the procedure: [table] To produce a suitable preparation of active compound, 1 part by weight of active compound is mixed with the stated amounts of solvent and emulsifier, and the concentrate is diluted with water to the desired concentration. To test for protective activity, young tomato plants are sprayed with the preparation of active compound at the stated application rate. One day after the treatment, the plants are inoculated with a spore suspension of Alternaria solani and then remain at 100% relative humidity and at 20° C. for 24 hours. The plants then remain at 96% relative atmospheric humidity and a temperature of 20° C. Evaluation is carried out 7 days after the inoculation. 0% means an efficacy which corresponds to that of the control, whereas an efficacy of 100% means that no infection is observed.

The test system of another assay is Sphaerotheca fuliginea. Kind of assay: Sphaerotheca test (cucumber)/protective. The settings on record: Podosphaera fuliginea, 168 h, protective, application rate 100 g/ha, evaluation 7 days after inoculation, read-out: Efficacy in %. On the procedure: [table] To produce a suitable preparation of active compound, one part by weight of active compound is mixed with the stated amounts of solvent and emulsifier, and the concentrate is diluted with water to the desired concentration. To test for protective activity, young plants are sprayed with the preparation of active compound at the stated application rate. After the spray coating has dried on, the plants are inoculated with an aqueous spore suspension of Sphaerotheca fuliginea. The plants are then placed in a greenhouse at about 23° C. and a relative atmospheric humidity of about 70%. Evaluation is carried out 7 days after the inoculation. 0% means an efficacy which corresponds to that of the control, whereas an efficacy of 100% means that no infection is observed.

As to `O=C(Nc1ccccc1-c1ccc(Br)cc1)c1ccoc1I` [drawing 268], the pest or weed control at 500 g/ha in the assay on Puccinia recondita is 100%. In the case of `O=C(Nc1ccccc1-c1ccc(Cl)c(F)c1)c1ccsc1Br` [drawing 285], the pest or weed control at 500 g/ha in the assay with Puccinia recondita was found to be 100%. Take `CC(C[Si](C)(C)C)c1ccccc1NC(=O)c1ccoc1I` (stereo not drawn) [drawing 275]: the pest or weed control at 500 g/ha in the assay on Puccinia recondita was found to be 100%. As for `CC(C)CC(C)c1ccccc1NC(=O)c1ccsc1I` (stereo not drawn) [drawing 289], the Efficacy in % in the assay on Alternaria solani is listed as 100%. In the case of `CO/N=C/c1ccc(-c2ccccc2NC(=O)c2ccsc2I)cc1F` [drawing 280], the pest or weed control at 500 g/ha in the assay with Puccinia recondita was 100%.

Take `O=C(Nc1ccccc1-c1ccc(Cl)c(Cl)c1)c1ccsc1I` [drawing 271]: the pest or weed control at 500 g/ha in the assay on Puccinia recondita was 100%. Take `O=C(Nc1ccccc1-c1ccc(Br)c(F)c1)c1ccsc1I` [drawing 264]: the pest or weed control at 500 g/ha in the assay on Puccinia recondita was 100%. Turning to `CC(C)CC(C)c1ccccc1NC(=O)c1ccsc1Br` (stereo not drawn) [drawing 282], the pest or weed control at 500 g/ha in the assay with Puccinia recondita amounted to 100%. `CC(C)(C)CCc1ccccc1NC(=O)c1ccsc1I` [drawing 263]: the pest or weed control at 500 g/ha in the assay with Puccinia recondita was 97%. The same measure, in the same setting: the same measure for `CC(C[Si](C)(C)C)c1ccccc1NC(=O)c1ccsc1I` (stereo not drawn) [drawing 276]: 100%. In the case of `O=C(Nc1ccccc1-c1ccc(Cl)cc1)c1ccoc1I` [drawing 267], the pest or weed control at 500 g/ha in the assay with Puccinia recondita was found to be 100%.

With `C=C(CC(C)(C)C)c1ccccc1NC(=O)c1ccsc1I` [drawing 273], in the assay on Puccinia recondita, the pest or weed control at 500 g/ha was found to be 93%. The same measure, in the same setting: the same measure for `CC1CC(C)(C)c2cccc(NC(=O)c3ccsc3I)c21` (stereo not drawn) [drawing 278]: 100%. Consider `CC(C)CC(C)c1ccccc1NC(=O)c1ccoc1I` (stereo not drawn) [drawing 290], for which the Efficacy in % in the assay with Alternaria solani is on record as 94%. Take `CC(C)(C)CCc1ccccc1NC(=O)c1ccsc1I` [drawing 288]: the Efficacy in % in the assay with Alternaria solani is given as 94%. Consider `CC(C)CC(C)c1ccccc1NC(=O)c1ccoc1I` (stereo not drawn) [drawing 261], for which the pest or weed control at 500 g/ha in the assay on Puccinia recondita came out at 100%. With `CC(CC(C)(C)C)c1ccccc1NC(=O)c1ccsc1I` (stereo not drawn) [drawing 272], the pest or weed control at 500 g/ha in the assay with Puccinia recondita amounted to 100%.

`O=C(Nc1ccccc1-c1ccc(Br)c(Cl)c1)c1ccsc1I` [drawing 265]: in the assay on Puccinia recondita, the pest or weed control at 500 g/ha worked out at 100%.

For the molecule `CC(C)CC(C)c1sccc1NC(=O)c1ccsc1I` (stereo not drawn) [drawing 281], the pest or weed control at 500 g/ha in the assay with Puccinia recondita is 100%. Turning to `CC(C[Si](C)(C)C)c1cc(F)ccc1NC(=O)c1ccsc1I` (stereo not drawn) [drawing 287], in the assay with Puccinia recondita, the pest or weed control at 500 g/ha amounted to 100%. Still for that read-out and setting: the same measure for `C[Si](C)(C)CCc1ccccc1NC(=O)c1ccsc1I` [drawing 262]: 97%.

Turning to `O=C(Nc1ccccc1-c1ccc(Cl)c(F)c1)c1ccoc1I` [drawing 270], the pest or weed control at 500 g/ha in the assay with Puccinia recondita came out at 100%.

On to `O=C(Nc1ccccc1-c1ccc(F)c(Cl)c1)c1ccsc1I` [drawing 286], for which the pest or weed control at 500 g/ha with Puccinia recondita is 100%. Consider `CC(C)CC(C)c1ccccc1NC(=O)c1ccsc1I` (stereo not drawn) [drawing 260], for which the pest or weed control at 500 g/ha in the assay with Puccinia recondita worked out at 100%. Turning to `O=C(Nc1ccc(F)cc1-c1ccc(Cl)c(Cl)c1)c1ccsc1I` [drawing 277], in the assay on Puccinia recondita, the pest or weed control at 500 g/ha came out at 100%. For the molecule `O=C(Nc1ccccc1-c1ccc(Cl)c(Cl)c1)c1ccsc1Br` [drawing 284], the pest or weed control at 500 g/ha with Puccinia recondita stood at 100%. Consider `O=C(Nc1ccccc1-c1ccc(Cl)c(Cl)c1)c1ccoc1I` [drawing 166], for which the pest or weed control at 100 g/ha in the assay with Sphaerotheca fuliginea was found to be 100%. In the case of `CC(CC(C)(C)C)c1ccccc1NC(=O)c1ccoc1I` (stereo not drawn) [drawing 269], the pest or weed control at 500 g/ha in the assay on Puccinia recondita is 100%. As to `O=C(Nc1ccccc1-c1ccc(C(F)(F)F)cc1Cl)c1ccsc1I` [drawing 155], the pest or weed control at 100 g/ha in the assay with Sphaerotheca fuliginea came to 100%. Consider `O=C(Nc1ccccc1-c1cccc(Cl)c1Cl)c1ccsc1I` [drawing 160], for which, in the assay on Sphaerotheca fuliginea, the pest or weed control at 100 g/ha was 100%. With `CC(C)CC(C)c1ccccc1NC(=O)c1ccsc1Br` (stereo not drawn) [drawing 178], in the assay with Sphaerotheca fuliginea, the pest or weed control at 100 g/ha is 100%. For `Cc1ccc(-c2ccccc2NC(=O)c2ccsc2I)cc1F` [drawing 174], the pest or weed control at 100 g/ha with Sphaerotheca fuliginea turned out to be 100%. In the case of `O=C(Nc1ccccc1-c1ccc(Cl)c(F)c1)c1ccsc1I` [drawing 274], the pest or weed control at 500 g/ha with Puccinia recondita is 94%. In the case of `CC(C)CC(C)c1cc(F)ccc1NC(=O)c1ccsc1I` (stereo not drawn) [drawing 279], the pest or weed control at 500 g/ha in the assay on Puccinia recondita turned out to be 100%.

Consider `O=C(Nc1ccccc1-c1ccc(Br)cc1)c1ccsc1I` [drawing 169], for which the pest or weed control at 100 g/ha in the assay with Sphaerotheca fuliginea was 100%. With `O=C(Nc1ccccc1-c1ccc(Cl)cc1)c1ccoc1I` [drawing 164], the pest or weed control at 100 g/ha in the assay with Sphaerotheca fuliginea stood at 100%. In the case of `CC(C)(C)CCc1cc(F)ccc1NC(=O)c1ccsc1I` [drawing 266], the pest or weed control at 500 g/ha in the assay on Puccinia recondita is 100%. Regarding `O=C(Nc1ccccc1-c1ccc(Cl)c(Cl)c1)c1ccsc1Br` [drawing 181], the pest or weed control at 100 g/ha in the assay on Sphaerotheca fuliginea came to 100%.

As to `CC(CC(C)(C)C)c1ccccc1NC(=O)c1ccsc1Br` (stereo not drawn) [drawing 283], the pest or weed control at 500 g/ha in the assay on Puccinia recondita was determined as 100%.
